Results as given in US20210023012A1, “Solid Pharmaceutical Compositions for Treating HCV” (AbbVie Inc., priority 2019, published 2021).

Key:
OATP1B1/3 = assay: Substrate of transporter OATP1B1/3; type: in vitro ADME
BCRP = biological target: T1, BCRP (Homo sapiens, UniProt Q9UNQ0); assay: Substrate of transporter BCRP; type: in vitro ADME
T1 sequence (Q9UNQ0 1-655): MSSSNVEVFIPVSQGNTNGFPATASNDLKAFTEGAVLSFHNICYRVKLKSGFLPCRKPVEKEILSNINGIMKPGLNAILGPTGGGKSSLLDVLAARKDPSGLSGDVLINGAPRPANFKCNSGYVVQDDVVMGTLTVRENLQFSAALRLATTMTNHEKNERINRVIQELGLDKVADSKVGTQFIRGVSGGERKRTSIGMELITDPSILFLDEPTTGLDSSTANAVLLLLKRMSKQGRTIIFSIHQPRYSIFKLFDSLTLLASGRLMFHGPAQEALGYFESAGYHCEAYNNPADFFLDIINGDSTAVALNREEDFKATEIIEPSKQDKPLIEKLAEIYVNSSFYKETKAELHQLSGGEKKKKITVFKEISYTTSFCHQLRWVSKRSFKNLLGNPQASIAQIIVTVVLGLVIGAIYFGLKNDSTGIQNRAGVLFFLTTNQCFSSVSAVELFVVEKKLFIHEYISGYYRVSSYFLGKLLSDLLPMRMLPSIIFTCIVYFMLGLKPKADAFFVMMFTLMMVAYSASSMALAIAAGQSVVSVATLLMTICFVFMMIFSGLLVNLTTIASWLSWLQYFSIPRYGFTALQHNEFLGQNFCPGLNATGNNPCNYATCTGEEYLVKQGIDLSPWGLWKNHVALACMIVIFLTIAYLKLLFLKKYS

| Substrate of transporter (OATP1B1/3) | Substrate of transporter (BCRP) | SMILES |
| --- | --- | --- |
| OATP1B1/3 | – | CC(C)(C)[C@@H]1NC(=O)O[C@@H]2CCC[C@H]2OC/C=C/C(F)(F)c2nc3ccccc3nc2O[C@@H]2C[C@@H](C(=O)N[C@]3(C(=O)NS(=O)(=O)C4(C)CC4)C[C@H]3C(F)F)N(C2)C1=O [Compound 1] |
| – | not excluded | COC(=O)N[C@H](C(=O)N1CCC[C@H]1c1nc2cc([C@H]3CC[C@H](c4cc5nc([C@@H]6CCCN6C(=O)[C@@H](NC(=O)OC)[C@@H](C)OC)[nH]c5cc4F)N3c3cc(F)c(N4CCC(c5ccc(F)cc5)CC4)c(F)c3)c(F)cc2[nH]1)[C@@H](C)OC [Compound 2] |
